Assay results reported in PubChem BioAssay AID248 (DTP/NCI, 2004).
“And” between values parts separate entries of the source, which are not always exact repeats. Equal entries are not always repeated. Inconclusive results and toxic doses are left out.

Tested on: L1210 leukemia ip in BDF1 mice, survival T/C
Experiment: NCI In Vivo Anticancer Drug Screen. Data for tumor model L1210 Leukemia (intraperitoneal) in B6D2F1 (BDF1) mice
Settings: endpoint: mean survival time, higher = longer survival
In short: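 Each compound was tested against a transplantable tumor grown in mice. The endpoint was survival, with treated animals benchmarked against vehicle controls as a simple ratio.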

[1] = dose: 100.0 mg/kg/injection, schedule: Q01DX001 (ip), vehicle: saline
[2] = dose: 200.0 mg/kg/injection, schedule: Q01DX001 (ip), vehicle: saline
[3] = dose: 400.0 mg/kg/injection, schedule: Q01DX001 (ip), vehicle: saline
[4] = dose: 100.0 mg/kg/injection, schedule: Q01DX009 (ip), vehicle: Klucel (hydroxypropylcellulose) (HPC)
[5] = dose: 200.0 mg/kg/injection, schedule: Q01DX009 (ip), vehicle: Klucel (hydroxypropylcellulose) (HPC)
[6] = dose: 400.0 mg/kg/injection, schedule: Q01DX009 (ip), vehicle: Klucel (hydroxypropylcellulose) (HPC)
[7] = dose: 100.0 mg/kg/injection, schedule: Q04DX003 (ip), vehicle: other
[8] = dose: 200.0 mg/kg/injection, schedule: Q04DX003 (ip), vehicle: other
[9] = dose: 100.0 mg/kg/injection, schedule: Q01DX009 (ip), vehicle: saline with Tween-80
[10] = dose: 200.0 mg/kg/injection, schedule: Q01DX009 (ip), vehicle: saline with Tween-80

`O=C1c2ccccc2C(=O)N1c1cc(OCc2ccccc2)cc(OCc2ccccc2)c1` was tested, and the T/C (dose: 100.0 mg/kg/injection, schedule: Q01DX009 (ip), vehicle: water) was 94 % of control, the T/C (dose: 100.0 mg/kg/injection, schedule: Q04DX003 (ip), vehicle: water) was 104 % of control and the T/C (dose: 200.0 mg/kg/injection, schedule: Q01DX009 (ip), vehicle: water) was 91 % of control. The T/C (dose: 200.0 mg/kg/injection, schedule: Q04DX003 (ip), vehicle: water) was 102 % of control, the T/C (dose: 400.0 mg/kg/injection, schedule: Q01DX009 (ip), vehicle: water) was 91 % of control and the T/C (dose: 400.0 mg/kg/injection, schedule: Q04DX003 (ip), vehicle: water) was 102 % of control.

In the case of `Nc1nc2n(O)cc(C(O)C(O)CO)nc-2c(=O)n1` (configuration not stated), the T/C [1] is reported as 100 % of control, the T/C [2] is reported as 103 % of control and the T/C [3] is reported as 103 % of control.

In the case of `CCCCCCCC/C=C\CCCCCCCC(=O)OCCCCCCCCCCCCCCCC`, the T/C [4] is reported as 104 % of control, the T/C [5] is reported as 96 % of control and the T/C [6] is reported as 93 % of control.

In the case of `COc1cc2c(cc1OC(C)=O)C=CCCC2=O`, the T/C (dose: 100.0 mg/kg/injection, schedule: Q01DX009 (ip), vehicle: other) is reported as 97 % of control, the T/C [7] is reported as 105 % of control and the T/C (dose: 200.0 mg/kg/injection, schedule: Q01DX009 (ip), vehicle: other) is reported as 90 % of control. For the same compound, the T/C [8] was 105 % of control, the T/C (dose: 400.0 mg/kg/injection, schedule: Q01DX009 (ip), vehicle: other) was 97 % of control and the T/C (dose: 400.0 mg/kg/injection, schedule: Q04DX003 (ip), vehicle: other) was 104 % of control.

`COc1ccc(CCCCO)cc1` was tested, and the T/C (dose: 100.0 mg/kg/injection, schedule: Q01DX001 (ip), vehicle: acetone) was 96 % of control, the T/C (dose: 200.0 mg/kg/injection, schedule: Q01DX001 (ip), vehicle: acetone) was 102 % of control and the T/C (dose: 400.0 mg/kg/injection, schedule: Q01DX001 (ip), vehicle: acetone) was 86 % of control.

For `NNC(=O)CCCCCO`, the T/C [9] was 102 % of control, the T/C [10] was 100 % of control and the T/C (dose: 400.0 mg/kg/injection, schedule: Q01DX009 (ip), vehicle: saline with Tween-80) was 100 % of control.

`O=C(CC1(O)C(=O)Nc2ccccc21)C12CC3CC(CC(C3)C1)C2` (configuration not stated) was tested, and the T/C (dose: 50.0 mg/kg/injection, schedule: Q01DX009 (ip), vehicle: saline with Tween-80) was 104 % of control, the T/C [9] was 101 % of control and the T/C [10] was 96 % of control.

For `CCCC[CH2][Sn]([CH2]CCCC)[CH2]CCCC.CCCC[CH2][Sn]([CH2]CCCC)[CH2]CCCC`, the T/C (dose: 100.0 mg/kg/injection, schedule: Q04DX002 (sc), vehicle: olive oil, sesame oil, peanut oil) was 115 % of control, the T/C (dose: 200.0 mg/kg/injection, schedule: Q04DX002 (sc), vehicle: olive oil, sesame oil, peanut oil) was 99 % of control and the T/C (dose: 400.0 mg/kg/injection, schedule: Q04DX002 (sc), vehicle: olive oil, sesame oil, peanut oil) was 105 % of control.

For `Nc1cccc(CCCCc2ccc(S(=O)(=O)F)cc2)c1`, the T/C [1] was 101 % of control, the T/C [2] was 95 % of control and the T/C [3] was 98 % of control.

For `CNC(=O)O/N=C(C)/C(C)=N/OC(=O)NC`, the T/C (dose: 100.0 mg/kg/injection, schedule: Q01DX001 (ip), vehicle: other) was 93 % of control, the T/C (dose: 200.0 mg/kg/injection, schedule: Q01DX001 (ip), vehicle: other) was 87 % of control and the T/C (dose: 400.0 mg/kg/injection, schedule: Q01DX001 (ip), vehicle: other) was 87 % of control.

With `CCOC(=O)C1CCC(NC(=O)N(CCCl)N=O)CC1` (configuration not stated) the T/C (dose: 3.0 mg/kg/injection, schedule: Q01DX001 (ip), vehicle: other) was 109 % of control, the T/C (dose: 12.0 mg/kg/injection, schedule: Q01DX001 (ip), vehicle: other) was 189 % of control and the T/C (dose: 16.0 mg/kg/injection, schedule: Q01DX001 (ip), vehicle: other) was 281 % of control. For the same compound, the T/C (dose: 20.0 mg/kg/injection, schedule: Q01DX001 (ip), vehicle: other) was 298 % of control, the T/C (dose: 21.0 mg/kg/injection, schedule: Q01DX001 (ip), vehicle: other) was 315 % of control and the T/C (dose: 24.0 mg/kg/injection, schedule: Q01DX001 (ip), vehicle: other) was 267 % of control. The T/C (dose: 30.0 mg/kg/injection, schedule: Q01DX001 (ip), vehicle: other) was 283 % of control, the T/C (dose: 31.0 mg/kg/injection, schedule: Q01DX001 (ip), vehicle: other) was 317 % of control and 337 % of control and the T/C (dose: 44.0 mg/kg/injection, schedule: Q01DX001 (ip), vehicle: other) was 270 % of control. The T/C (dose: 47.0 mg/kg/injection, schedule: Q01DX001 (ip), vehicle: other) was 252 % of control, the T/C (dose: 62.0 mg/kg/injection, schedule: Q01DX001 (ip), vehicle: other) was 259 % of control and the T/C (dose: 70.0 mg/kg/injection, schedule: Q01DX001 (ip), vehicle: other) was 159 % of control.

`O=C(O)c1ccccc1-c1c2ccc(=O)c(O)c-2oc2c(O)c(O)ccc12` was tested, and the T/C (dose: 10.0 mg/kg/injection, schedule: Q04DX003 (ip), vehicle: other) was 99 % of control, the T/C (dose: 20.0 mg/kg/injection, schedule: Q04DX003 (ip), vehicle: other) was 94 % of control and the T/C (dose: 40.0 mg/kg/injection, schedule: Q04DX003 (ip), vehicle: other) was 98 % of control. For the same compound, the T/C (dose: 50.0 mg/kg/injection, schedule: Q04DX003 (ip), vehicle: other) was 112 % of control, the T/C (dose: 80.0 mg/kg/injection, schedule: Q04DX003 (ip), vehicle: other) was 89 % of control and the T/C [7] was 104 % of control. The T/C [8] was 124 % of control.

For `CC(=O)CCNC1(c2ccccc2)CCCCC1`, the T/C (dose: 100.0 mg/kg/injection, schedule: Q01DX001 (ip), vehicle: Klucel (hydroxypropylcellulose) (HPC)) was 95 % of control and the T/C (dose: 200.0 mg/kg/injection, schedule: Q01DX001 (ip), vehicle: Klucel (hydroxypropylcellulose) (HPC)) was 95 % of control.

With `O=C(O)C12C3(Cl)C4(Cl)C(O)(O)C5(Cl)C3(Cl)C1(Cl)C5(Cl)C42Cl` (configuration not stated) the T/C (dose: 50.0 mg/kg/injection, schedule: Q01DX001 (ip), vehicle: saline) was 102 % of control, the T/C [1] was 105 % of control and the T/C [2] was 96 % of control. For the same compound, the T/C [3] was 110 % of control.

`C=C1C(=O)O[C@@H]2CC(C)=C3CC[C@@](C)(O)[C@@H]3C[C@H]12` was tested, and the T/C (dose: 75.0 mg/kg/injection, schedule: Q04DX003 (ip), vehicle: Klucel (hydroxypropylcellulose) (HPC)) was 106 % of control, the T/C (dose: 150.0 mg/kg/injection, schedule: Q04DX003 (ip), vehicle: Klucel (hydroxypropylcellulose) (HPC)) was 102 % of control and the T/C (dose: 300.0 mg/kg/injection, schedule: Q04DX003 (ip), vehicle: Klucel (hydroxypropylcellulose) (HPC)) was 98 % of control. For the same compound, the T/C (dose: 600.0 mg/kg/injection, schedule: Q04DX003 (ip), vehicle: Klucel (hydroxypropylcellulose) (HPC)) was 94 % of control.

`CC1=CC(=O)C(Sc2ccc(C)cc2)=CC1=O` was tested, and the T/C (dose: 75.0 mg/kg/injection, schedule: Q01DX001 (ip), vehicle: other) was 98 % of control and the T/C (dose: 150.0 mg/kg/injection, schedule: Q01DX001 (ip), vehicle: other) was 93 % of control.

In the case of `c1ccc2c(c1)[nH]c1nc3ccncc3nc12`, the T/C (dose: 100.0 mg/kg/injection, schedule: Q04DX003 (ip), vehicle: saline) is reported as 103 % of control and the T/C (dose: 200.0 mg/kg/injection, schedule: Q04DX003 (ip), vehicle: saline) is reported as 94 % of control.

In the case of `COC(=O)c1ccc(C)nc1OC/C=C(\C)CCC=C(C)C`, the T/C [1] is reported as 104 % of control, the T/C (dose: 100.0 mg/kg/injection, schedule: Q01DX009 (ip), vehicle: saline) is reported as 110 % of control and the T/C [2] is reported as 99 % of control. For the same compound, the T/C (dose: 200.0 mg/kg/injection, schedule: Q01DX009 (ip), vehicle: saline) was 102 % of control, the T/C [3] was 90 % of control and the T/C (dose: 400.0 mg/kg/injection, schedule: Q01DX009 (ip), vehicle: saline) was 106 % of control.

In the case of `O=C(Nc1ccc(F)cc1)Nc1ccc(I)cc1`, the T/C [4] is reported as 100 % of control and 92 % of control, the T/C [5] is reported as 100 % of control and the T/C [6] is reported as 96 % of control and 90 % of control.

`c1ccc(CNCCNCc2ccccn2)nc1` was tested, and the T/C (dose: 1.25 mg/kg/injection, schedule: Q04DX002 (ip), vehicle: saline) was 106 % of control, the T/C (dose: 2.5 mg/kg/injection, schedule: Q04DX002 (ip), vehicle: saline) was 113 % of control and the T/C (dose: 5.0 mg/kg/injection, schedule: Q04DX002 (ip), vehicle: saline) was 106 % of control. The T/C (dose: 10.0 mg/kg/injection, schedule: Q04DX002 (ip), vehicle: saline) was 102 % of control.
